Measurements reported in patent US12281149B2, “Modulators of G-protein coupled receptors” (priority 2021, dated 2025).
*1 amine or outer side, *2 acyl side, *3 side chain or, on linkers, in order; H or OH if unused. Where a SMILES comes first, the peptide text is derived from it. Side-chain parts run from the residue outwards. [ ]: non-standard residue; d: D form. The star is where a group is joined. Isobutyryl(2-(3-CN-5-F-Ph)) = CC(C)(C(=O)*)c1cc(F)cc(C#N)c1; C20 diacid = O=C(O)CCCCCCCCCCCCCCCCCCC(=O)*; γGlu = O=C(O)[C@H](CCC(=O)[*:2])N[*:1]; Trx = NC[C@H]1CC[C@H](C(=O)O)CC1; X80 = CC1CC(C(=O)*)(n2cccn2)CCO1; AEEA = NCCOCCOCC(=O)O; Aib = CC(C)(N)C(=O)O; GABA = NCCCC(=O)O; βAla = NCCC(=O)O

Columns and labels:
Type in all cases: cell-based
[1] = target: T1, GLP-1 receptor (Homo sapiens, UniProt P43220); experiment: HitHunter cAMP assay, GLP-1 receptor; conditions: for EC50: CHO cells stably expressing human GLP-1 receptor, cAMP accumulation, 30 min, read-out: EC50 GLP-1R; for Emax: CHO cells, cAMP, normalized to maximum signal from GLP-1 (high) and DMSO (low), read-out: Emax GLP-1R
T1 sequence (P43220 24-463): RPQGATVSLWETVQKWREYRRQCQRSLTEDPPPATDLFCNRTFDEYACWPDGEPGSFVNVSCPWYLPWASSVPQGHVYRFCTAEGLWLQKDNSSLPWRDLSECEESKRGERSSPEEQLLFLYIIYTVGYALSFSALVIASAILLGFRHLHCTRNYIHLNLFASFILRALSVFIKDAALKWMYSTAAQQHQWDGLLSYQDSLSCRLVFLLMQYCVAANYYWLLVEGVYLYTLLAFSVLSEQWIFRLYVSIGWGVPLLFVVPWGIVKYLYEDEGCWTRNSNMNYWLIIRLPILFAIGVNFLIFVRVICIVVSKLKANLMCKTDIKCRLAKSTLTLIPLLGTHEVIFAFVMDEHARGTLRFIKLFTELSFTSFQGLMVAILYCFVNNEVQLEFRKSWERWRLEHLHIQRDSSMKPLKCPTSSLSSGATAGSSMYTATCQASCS

[2] = target: T2, GIP receptor (Homo sapiens, UniProt P48546); experiment: PathHunter β-arrestin assay, GIP receptor; parameters: host or cells: PathHunter CHO-K1 GIPR β-Arrestin Cell Line; conditions: β-arrestin-2 recruitment, PathHunter CHO-K1 GIPR β-Arrestin Cell Line, 90 min at 37° C.; normalized to GIP; read-out: GIPR β Arrestin EC50
T2 sequence (P48546 22-466): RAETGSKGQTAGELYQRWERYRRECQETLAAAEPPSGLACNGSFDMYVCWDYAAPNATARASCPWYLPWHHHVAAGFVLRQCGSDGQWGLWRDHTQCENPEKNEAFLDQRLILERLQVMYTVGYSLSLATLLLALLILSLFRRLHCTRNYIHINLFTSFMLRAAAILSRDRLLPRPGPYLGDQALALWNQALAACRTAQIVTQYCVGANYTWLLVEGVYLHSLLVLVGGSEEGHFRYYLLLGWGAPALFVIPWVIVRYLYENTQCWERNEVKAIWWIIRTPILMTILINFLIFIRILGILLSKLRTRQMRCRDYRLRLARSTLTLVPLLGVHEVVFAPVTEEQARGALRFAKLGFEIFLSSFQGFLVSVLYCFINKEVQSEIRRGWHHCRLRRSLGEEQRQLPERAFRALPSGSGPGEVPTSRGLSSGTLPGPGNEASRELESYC

[3] = target: T2, GIP receptor; experiment: HitHunter cAMP assay, GIP receptor; conditions: for EC50: CHO cells stably expressing GIP receptor, cAMP accumulation, 30 min, read-out: EC50 GIP-1R; for Emax: CHO cells, cAMP, normalized to maximum signal from GIP (high) and DMSO (low), read-out: Emax GIP-1R
Method: CAMP accumulation was measured in Chinese hamster ovary (CHO) cells stably expressing the human GLP-1 receptor or GIP receptor using the HitHunter CAMP Assay for Small Molecules Kit (Eurofins). Briefly, cells were grown in Ham's F12 Nutrient Mix with 10% FBS and lifted with Cell dissociation buffer, Enzyme free, PBS based (ThermoFisher). Cells were pelleted and resuspended in Hank's buffered saline solution with 10 mM Hepes and 625 μM 3-isobutyl-1-methylxanthine. The antibody reagent was then added to cells at a 1:2 ratio and 5 μL of mixture was seeded in 384-well small volume white assay plates, at 10,000 cells/well. Cells were then treated with 50 nl compound in DMSO using an ECHO 550 acoustic dispenser (Labcyte) in a 20-point dose response format in triplicate for 30 min. Cells were the lysed and detection reagents added according to the manufacturer's protocol. After overnight incubation, luminescence was measured using a Perkin Elmer Envision plate reader. Raw data was normalized to the maximum signal from GLP-1 or GIP (high) and DMSO (low). Dose response curves were analyzed using GraphPad Prism 9.0.

[4] = target: T1, GLP-1 receptor; experiment: PathHunter β-arrestin assay, GLP-1 receptor; parameters: host or cells: PathHunter CHO-K1 GLP1R β-Arrestin Cell Line; conditions: β-arrestin-2 recruitment, PathHunter CHO-K1 GLP1R β-Arrestin Cell Line, 90 min at 37° C.; normalized to GLP-1; read-out: GLP-1R β Arrestin EC50

SMILES | EC50 [1] | Emax [1] | EC50 [2] | EC50 [3] | Emax [3] | EC50 [4]
CC[C@H](C)[C@H](NC(=O)[C@H](CC(C)C)NC(=O)[C@H](Cc1c[nH]c2ccccc12)NC(=O)[C@H](CCC(N)=O)NC(=O)[C@@H](NC(=O)[C@H](Cc1ccccc1)NC(=O)[C@H](C)NC(=O)[C@H](CCCCNC(=O)COCCOCCNC(=O)COCCOCCNC(=O)CC[C@H](NC(=O)CCCCCCCCCCCCCCCCCCC(=O)O)C(=O)O)NC(=O)[C@H](CCC(N)=O)NC(=O)[C@H](C)NC(=O)[C@@H](NC(=O)[C@H](CCCCN)NC(=O)[C@H](CC(=O)O)NC(=O)[C@H](CC(C)C)NC(=O)C(C)(C)NC(=O)[C@@H](NC(=O)[C@H](CO)NC(=O)[C@H](Cc1ccc(O)cc1)NC(=O)[C@H](CC(=O)O)NC(=O)[C@H](CO)NC(=O)[C@@H](NC(=O)[C@H](Cc1ccccc1)NC(=O)[C@@H](NC(=O)CNC(=O)[C@H](CCC(=O)O)NC(=O)CCNC(=O)C(C)(C)c1cc(F)cc(C#N)c1)[C@@H](C)O)[C@@H](C)O)[C@@H](C)CC)[C@@H](C)CC)C(C)C)C(=O)N[C@@H](C)C(=O)NCC(=O)NCC(=O)N1CCC[C@H]1C(=O)N[C@@H](CO)C(=O)N[C@@H](CO)C(=O)NCC(=O)N[C@@H](C)C(=O)N1CCC[C@H]1C(=O)N1CCC[C@H]1C(=O)N1CCC[C@H]1C(=O)N[C@@H](CO)C(=O)O [Compound 169] ({Isobutyryl(2-(3-CN-5-F-Ph))-βAla}-EGTFTSDYSI[Aib]LDKIAQK([AEEA-AEEA-γGlu-C20 diacid])AFVQWLIAGGPSSGAPPPS-OH) | 0.1 to 1 nM | 108% | < 1000 nM | 1 to 10 nM | 110% | > 1000 nM
CC[C@H](C)[C@H](NC(=O)[C@H](CO)NC(=O)[C@H](Cc1ccc(O)cc1)NC(=O)[C@H](CC(=O)O)NC(=O)[C@H](CO)NC(=O)[C@@H](NC(=O)[C@H](Cc1ccccc1)NC(=O)[C@@H](NC(=O)CNC(=O)[C@H](CCC(=O)O)NC(=O)CCNC(=O)C(C)(C)c1cc(F)cc(C#N)c1)[C@@H](C)O)[C@@H](C)O)C(=O)N[C@@H](Cc1ccc(O)cc1)C(=O)N[C@@H](CC(C)C)C(=O)N[C@@H](CC(=O)O)C(=O)N[C@@H](CCCCN)C(=O)N[C@@H](CCC(N)=O)C(=O)N[C@@H](C)C(=O)N[C@@H](C)C(=O)NC(C)(C)C(=O)N[C@@H](CCC(=O)O)C(=O)N[C@@H](Cc1ccccc1)C(=O)N[C@H](C(=O)N[C@@H](CC(N)=O)C(=O)N[C@@H](Cc1c[nH]c2ccccc12)C(=O)N[C@@H](CC(C)C)C(=O)N[C@@H](CC(C)C)C(=O)N[C@@H](C)C(=O)NCC(=O)NCC(=O)N1CCC[C@H]1C(=O)N[C@@H](CO)C(=O)N[C@@H](CO)C(=O)NCC(=O)N[C@@H](C)C(=O)N1CCC[C@H]1C(=O)N1CCC[C@H]1C(=O)N1CCC[C@H]1C(=O)N[C@@H](CO)C(=O)N[C@@H](CCCCNC(=O)COCCOCCNC(=O)COCCOCCNC(=O)CC[C@H](NC(=O)CCCCCCCCCCCCCCCCCCC(=O)O)C(=O)O)C(N)=O)C(C)C [Compound 187] | 1 to 10 nM | 95% | > 1000 nM | 10 to 100 nM | 95% | > 1000 nM
CC[C@H](C)[C@H](NC(=O)[C@H](CC(C)C)NC(=O)[C@H](Cc1c[nH]c2ccccc12)NC(=O)[C@H](CCC(N)=O)NC(=O)[C@@H](NC(=O)[C@H](Cc1ccccc1)NC(=O)[C@H](C)NC(=O)[C@H](CCCCNC(=O)COCCOCCNC(=O)COCCOCCNC(=O)CC[C@H](NC(=O)CCCCCCCCCCCCCCCCCCC(=O)O)C(=O)O)NC(=O)[C@H](CCC(N)=O)NC(=O)[C@H](C)NC(=O)[C@@H](NC(=O)[C@H](CCCCN)NC(=O)[C@H](CC(=O)O)NC(=O)[C@H](CC(C)C)NC(=O)C(C)(C)NC(=O)[C@@H](NC(=O)[C@H](CO)NC(=O)[C@H](Cc1ccc(O)cc1)NC(=O)[C@H](CC(=O)O)NC(=O)[C@H](CO)NC(=O)[C@@H](NC(=O)[C@H](Cc1ccccc1)NC(=O)[C@@H](NC(=O)CNC(=O)[C@H](CCC(=O)O)NC(=O)CCNC(=O)C1(n2cccn2)CCOC(C)C1)[C@@H](C)O)[C@@H](C)O)[C@@H](C)CC)[C@@H](C)CC)C(C)C)C(=O)N[C@@H](C)C(=O)NCC(=O)NCC(=O)N1CCC[C@H]1C(=O)N[C@@H](CO)C(=O)N[C@@H](CO)C(=O)NCC(=O)N[C@@H](C)C(=O)N1CCC[C@H]1C(=O)N1CCC[C@H]1C(=O)N1CCC[C@H]1C(=O)N[C@@H](CO)C(N)=O (stereo partly drawn) [Compound 105] ({X80-βAla}-EGTFTSDYSI[Aib]LDKIAQK([AEEA-AEEA-γGlu-C20 diacid])AFVQWLIAGGPSSGAPPPS-NH2) | 0.1 to 1 nM | 95% | > 1000 nM | 1 to 10 nM | 112% | > 1000 nM
CC[C@H](C)[C@H](NC(=O)[C@H](CC(C)C)NC(=O)[C@H](Cc1c[nH]c2ccccc12)NC(=O)[C@H](CCC(N)=O)NC(=O)[C@@H](NC(=O)[C@H](Cc1ccccc1)NC(=O)[C@H](C)NC(=O)[C@H](CCCCNC(=O)COCCOCCNC(=O)COCCOCCNC(=O)CC[C@H](NC(=O)CCCCCCCCCCCCCCCCCCC(=O)O)C(=O)O)NC(=O)[C@H](CCC(N)=O)NC(=O)[C@H](C)NC(=O)[C@@H](NC(=O)[C@H](CCCCN)NC(=O)[C@H](CC(=O)O)NC(=O)[C@H](CC(C)C)NC(=O)C(C)(C)NC(=O)[C@@H](NC(=O)[C@H](CO)NC(=O)[C@H](Cc1ccc(O)cc1)NC(=O)[C@H](CC(=O)O)NC(=O)[C@H](CO)NC(=O)[C@@H](NC(=O)[C@H](Cc1ccccc1)NC(=O)[C@@H](NC(=O)CNC(=O)[C@H](CCC(=O)O)NC(=O)CCCNC(=O)C(C)(C)c1cc(F)cc(C#N)c1)[C@@H](C)O)[C@@H](C)O)[C@@H](C)CC)[C@@H](C)CC)C(C)C)C(=O)N[C@@H](C)C(=O)NCC(=O)NCC(=O)N1CCC[C@H]1C(=O)N[C@@H](CO)C(=O)N[C@@H](CO)C(=O)NCC(=O)N[C@@H](C)C(=O)N1CCC[C@H]1C(=O)N1CCC[C@H]1C(=O)N1CCC[C@H]1C(=O)N[C@@H](CO)C(N)=O [Compound 200] ({Isobutyryl(2-(3-CN-5-F-Ph))-GABA}-EGTFTSDYSI[Aib]LDKIAQK([AEEA-AEEA-γGlu-C20 diacid])AFVQWLIAGGPSSGAPPPS-NH2) | 0.1 to 1 nM | 104% | > 1000 nM | 10 to 100 nM | 102% | > 1000 nM
CC[C@H](C)[C@H](NC(=O)[C@H](CC(C)C)NC(=O)[C@H](Cc1c[nH]c2ccccc12)NC(=O)[C@H](CCC(N)=O)NC(=O)[C@@H](NC(=O)[C@H](Cc1ccccc1)NC(=O)[C@H](C)NC(=O)[C@H](CCCCNC(=O)CC[C@H](NC(=O)CC[C@H](NC(=O)CC[C@H](NC(=O)[C@H]1CC[C@H](CNC(=O)CCCCCCCCCCCCCCCCCCC(=O)O)CC1)C(=O)O)C(=O)O)C(=O)O)NC(=O)[C@H](CCC(N)=O)NC(=O)[C@H](C)NC(=O)[C@@H](NC(=O)[C@H](CCCCN)NC(=O)[C@H](CC(=O)O)NC(=O)[C@H](CC(C)C)NC(=O)C(C)(C)NC(=O)[C@@H](NC(=O)[C@H](CO)NC(=O)[C@H](Cc1ccc(O)cc1)NC(=O)[C@H](CC(=O)O)NC(=O)[C@H](CO)NC(=O)[C@@H](NC(=O)[C@H](Cc1ccccc1)NC(=O)[C@@H](NC(=O)CNC(=O)[C@H](CCC(=O)O)NC(=O)CCNC(=O)C(C)(C)c1cc(F)cc(C#N)c1)[C@@H](C)O)[C@@H](C)O)[C@@H](C)CC)[C@@H](C)CC)C(C)C)C(=O)N[C@@H](C)C(=O)NCC(=O)NCC(=O)N1CCC[C@H]1C(=O)N[C@@H](CO)C(=O)N[C@@H](CO)C(=O)NCC(=O)N[C@@H](C)C(=O)N1CCC[C@H]1C(=O)N1CCC[C@H]1C(=O)N1CCC[C@H]1C(=O)N[C@@H](CO)C(N)=O [Compound 107] ({Isobutyryl(2-(3-CN-5-F-Ph))-βAla}-EGTFTSDYSI[Aib]LDKIAQK([γGlu-γGlu-γGlu-Trx-C20 diacid])AFVQWLIAGGPSSGAPPPS-NH2) | 0.1 to 1 nM | 95% | < 1000 nM | 1 to 10 nM | 106% | > 1000 nM
